{"source": "patent US20250215397A1", "about": "“TWO-DIMENSIONAL CULTURE METHOD HAVING CLEAR CHEMICAL COMPOSITION FOR CULTURING THREE-DIMENSIONAL INTESTINAL ORGANOID-DERIVED INTESTINAL STEM CELL AGGREGATE” (KOREA RESEARCH INSTITUTE OF BIOSCIENCE AND BIOTECHNOLOGY, priority 2022, published 2025)", "format_in_all_cases": "cell-based, human", "key": {"[1]": {"tested_on": "two-dimensional intestinal stem cell population", "assay": "Subculture of two-dimensional intestinal stem cells, engraftment / cell number", "conditions": "for need for long-term subculturing: factor removed from culture medium, subculture, FIG. 12; for subculture efficiency: added during subculture; for subculture efficiency / cell engraftment during subculture: FIG. 13; for cell engraftment during subculture: treatment during subculture", "description": "(§1) The three-dimensional intestinal organoids were isolated from a Matrigel dome and the remaining three-dimensional intestinal organoids were removed as much as possible by pipetting. The separated organoids were placed in 1 ml of 0.25% trypsin-EDTA (TE, Invitrogen) and incubated at 37° C. a water bath for about 5 minutes. Then, pipetting was performed less than five times so that the organoids were allowed to be isolated into single cells and small clumps, and a basal medium was added so that the total volume thereof was 10 ml. The cells fed into a centrifuge were placed on culture dishes coated with feeder cells or 1% of Matrigel (Corning). Thereafter, 200 ng/ml of R-spondin 1 (R&D Systems), 100 ng/ml of EGF (R&D Systems), and 2.5 μM of Postaglandin E2 (Sigma-aldrich) were used as main components, cultured in an intestinal stem cell culture medium (2 mM of L-glutamine, 1% of Penicillin-Streptomycin, and 15 mM of HEPES buffer in Advanced DMEM F12) comprising, as an auxiliary component, one or more selected from the group consisting of 1×B27 (Invitrogen), 80 ng/ml of Noggin (R&D Systems), 10 nM of [Leu15]-Gastrin I (Sigma-aldrich), 100 ng/ml of human recombinant WNT3A (R&D Systems), 500 nM of A-83-01 (Tocris), 10 μM of SB202190 (Sigma-aldrich), 1 mM of N-acetylcysteine (Sigma-aldrich), and 10 mM of nicotinamide (Sigma-aldrich), and subcultured every 7 to 10 days. During the first 2 days of subculture, 1 μM of Jagged-1 (Anaspec) and/or 2.5 μM of Y-27632 (Tocirs) were added to the intestinal stem cell culture medium.\n(§2) The two-dimensional intestinal stem cell population was plated on a culture dish coated with 1% of Matrigel and then cultured for 2 to 7 days. Thereafter, the culture medium was removed, and washing was performed 1 to 2 times with PBS (Sigma-aldrich), and TE (Invitrogen) was added thereto to detach the cells. After centrifugation, a medium was added to isolate the cells into single cells, and then the number of cells was measured using CountessIII cell counter (Thermo Scientific. Inc.)."}, "[2]": {"tested_on": "two-dimensional intestinal stem cell population", "assay": "Two-dimensional culture of intestinal stem cell population with removal of medium factors or inhibitor treatment", "conditions": "for role of essential culture medium factor (stemness, proliferation, death): presence or absence of each factor, FIGS. 7-10; for growth of the two-dimensional intestinal stem cell population: treatment with a WNT inhibitor, morphology, FIG. 8", "description": "as §1\nTo measure viability of a two-dimensional intestinal stem cell population cultured in a culture dish coated with 1% of Matrigel, a kit (LIVE/DEAD Viability/Cytotoxicity Kit, Invitrogen) capable of distinguishing and staining surviving cells and dead cells was used. The surviving cells were stained with calcein-AM, and the dead cells were stained with ethidium homodimer-1. The stained cells were observed through a fluorescence microscope (Olympus).\nas §2\nThe intestinal stem cell population was fixed with 4% of paraformaldehyde (PFA) and stained with 0.02% of crystal violet solution (Sigma-aldrich) at room temperature for 10 minutes. Thereafter, images were acquired after washing three times with sterile water. A colony size of the intestinal stem cell population was analyzed using Image J software (National Institute of Health)."}, "[3]": {"tested_on": "two-dimensional intestinal stem cell population", "assay": "Differentiation into 2.5-dimensional intestinal epithelial cells by air-liquid interface culture, medium factor screening", "conditions": "minimal medium composition; FIG. 24", "description": "The intestinal stem cells grown to a density of 70 to 80% were washed 1-2 times with PBS, and then treated with TE in an incubator at 37° C. for 5 to 7 minutes. The intestinal stem cells isolated into single cells were collected and then diluted using the hIO medium. The cells were gathered by centrifugation, supernatant was removed, the intestinal stem cell culture medium was added thereto and sufficiently mixed, and then the number of cells was measured using Countess III cell counter (Thermo Scientific. Inc.). 2.5-3.5×10^5 cells were placed in an insert of 12-transwell plate (Corning) coated with 1% of Matrigel, and cultured in an incubator. After the cell density reached 100%, the culture medium of an upper layer was completely removed, and the culture medium of a lower layer was replaced with a differentiation medium (2 mM of L-glutamine, 1% of Penicillin-Streptomycin, and 15 mM of a HEPES buffer in Advanced DMEM F12) comprising 200 ng/ml of R-spondin 1 (R&D Systems), 100 ng/ml of EGF (R&D Systems), 2.5 µM of Prostaglandin E2 (Sigma-aldrich), 10 μM of SB202190 (Sigma-aldrich), and 10 mM of nicotinamide (Sigma-aldrich). Thereafter, once every 2 days, a surface of the upper layer was washed with the PBS or hIO medium, and the lower layer was replaced with a new differentiation medium and cultured for 8 to 12 days."}}, "note": "Structures can show the parent of a compound that is named as a salt."}
{"compound": "Cc1cccc(-c2nn(C(=S)Nc3ccccc3)cc2-c2ccnc3ccccc23)n1", "note": "[A-83-01]", "values": [{"measurement": "need for long-term subculturing", "setting": "[1]", "value": "required to more efficiently perform long-term culturing"}]}
{"compound": "CC(=O)N[C@@H](CS)C(=O)O", "note": "[N-acetylcysteine]", "values": [{"measurement": "need for long-term subculturing", "setting": "[1]", "value": "required to more efficiently perform long-term culturing"}]}
{"compound": "O=C(NOC[C@H](O)CO)c1ccc(F)c(F)c1Nc1ccc(I)cc1F", "note": "[PD0325901]", "values": [{"measurement": "cell proliferation of the two-dimensional intestinal stem cell population", "setting": "[2]; EGF inhibitor treatment, morphology and live/dead assay, FIG. 9", "value": "cell proliferation is inhibited"}]}
{"compound": "CCCCC[C@H](O)/C=C/[C@H]1[C@H](O)CC(=O)[C@@H]1C/C=C\\CCCC(=O)O", "note": "[PGE2, prostaglandin E2]", "values": [{"measurement": "role of essential culture medium factor (stemness, proliferation, death)", "setting": "[2]", "value": "modulate the proliferation of the intestinal stem cell population"}, {"measurement": "effect on differentiation into intestinal epithelial cells", "setting": "[3]", "value": "excellent effect on differentiation into intestinal epithelial cells"}]}
{"compound": "Oc1ccc(-c2nc(-c3ccncc3)c(-c3ccc(F)cc3)[nH]2)cc1", "note": "[SB202190]", "values": [{"measurement": "need for long-term subculturing", "setting": "[1]", "value": "required to more efficiently perform long-term culturing"}, {"measurement": "effect on differentiation into intestinal epithelial cells", "setting": "[3]", "value": "excellent effect on differentiation into intestinal epithelial cells"}]}
{"compound": "Cc1cc(-c2ccc(CC(=O)Nc3ccc(-c4cccnc4)cc3)cc2)ccn1", "note": "[WNT-C59]", "values": [{"measurement": "growth of the two-dimensional intestinal stem cell population", "setting": "[2]", "value": "growth is inhibited"}]}
{"compound": "Oc1nc(-c2ccc(C(F)(F)F)cc2)nc2c1CSCC2", "note": "[XAV939]", "values": [{"measurement": "growth of the two-dimensional intestinal stem cell population", "setting": "[2]", "value": "growth is inhibited"}]}
{"compound": "C[C@@H](N)[C@H]1CC[C@H](C(=O)Nc2ccncc2)CC1", "note": "[Y-27632, R-(+)-trans-4-(1-aminoethyl)-N-(4-pyridyl) cyclohexanecarboxamidedihydrochloridemonohydrate]", "values": [{"measurement": "subculture efficiency", "setting": "[1]", "value": "subculture efficiency is increased"}, {"measurement": "cell engraftment during subculture", "setting": "[1]", "value": "cell engraftment increases"}]}
{"compound": "NC(=O)c1cccnc1", "note": "[nicotinamide]", "values": [{"measurement": "need for long-term subculturing", "setting": "[1]", "value": "required to more efficiently perform long-term culturing"}, {"measurement": "effect on differentiation into intestinal epithelial cells", "setting": "[3]", "value": "excellent effect on differentiation into intestinal epithelial cells"}]}
{"compound": "CCCC(CCC)C(=O)O", "note": "[valproic acid]", "values": [{"measurement": "subculture efficiency", "setting": "[1]", "value": "subculture efficiency is increased"}, {"measurement": "cell engraftment during subculture", "setting": "[1]", "value": "cell engraftment increases"}]}
{"compound": "EGF: receptor tyrosine kinase ligand, epidermal growth factor (NSDSECPLSHDGYCLHDGVCMYIEALDKYACNCVVGYIGERCQYRDLKWWELR; Epidermal growth factor; UniProt P01133 971-1023, looked up)", "values": [{"measurement": "role of essential culture medium factor (stemness, proliferation, death)", "setting": "[2]", "value": "prevent death of intestinal stem cell population and modulate proliferation"}, {"measurement": "effect on differentiation into intestinal epithelial cells", "setting": "[3]", "value": "excellent effect on differentiation into intestinal epithelial cells"}]}
{"compound": "Jagged-1: Notch activator", "values": [{"measurement": "subculture efficiency", "setting": "[1]", "value": "subculture efficiency is increased"}, {"measurement": "cell engraftment during subculture", "setting": "[1]", "value": "cell engraftment increases"}]}
